Results from patent US4921863A, “Cyclic amine derivatives” (Eisai Co., Ltd., priority 1988, dated 1990).

Tested on: learning disorder after ischemia
Experiment: Effect of remedying learning disorder after ischemia (passive avoidance method)
Type: in vivo, Mongolian gerbils
Conditions: p.o.; for Latent time (average ± S.E.): 1 h before 5-min ischemia, upper limit 300 sec, normal 246.5, control 71.5 sec; for Recovery ratio: normal = 100, control = 0
Method: Common carotid arteries on both sides of Mongolian gerbils (17 to 21 weeks old) were clipped with Skoville clamps without anesthesia and the clamps were removed after 5 min to realize a short period of ischemia. Twenty-four hours after the removal of the clamps, these animals were subjected to learning and memory tests were conducted after an additional 24 h. The learning and memory functions were examined by the passive avoidance method with a modification of a device reported by Jarvik and Kopp in "Psychological Reports", 21, 221 to 224 (1967). The device had two chambers, […] chamber A and a dark chamber B. In the tests, the animals were placed in the well-lighted chamber A and an electric current (A.C., 1.6 mA) was applied to a grid on the floor of the dark chamber B for 5 min when they entered the chamber B. On the next day, the animals subjected to the learning were placed in the chamber A and the time (latent time) which had elapsed before they entered the chamber B was measured. The upper limit of the latent time was set at 300 sec. The compound was administered in the form of a 5% suspension in acacia orally one hour before causing the ischemia. A 5% acacia solution was administered to the control group.

Compound | Latent time (average ± S.E.) (3 mg/kg) | Recovery ratio (3 mg/kg) | Latent time (average ± S.E.) (10 mg/kg) | Recovery ratio (10 mg/kg) | Latent time (average ± S.E.) (30 mg/kg) | Recovery ratio (30 mg/kg)
O=C(CN1CCC(=Cc2ccc(F)cc2)CC1)c1ccc2ccccc2c1 [Example 74] | 110.2 ± 29.0 s | 22% | 123.2 ± 24.3 s | 30% | 129.2 ± 23.8 s | 33%
Cl.O=C(CN1CCC(C(=O)c2ccc(F)cc2)CC1)c1ccc2ccccc2c1 [Example 12, 2-[4-(p-Fluorobenzoyl)-1-piperidinyl]-2'-acetonaphthone hydrochloride] | 168.8 ± 23.0 s | 56% | 196.8 ± 22.3 s | 72% | 196.3 ± 37.0 s | 71%
c1ccc(CC2CCN(CCc3ccc4ccccc4c3)CC2)cc1 [Example 73] |  |  | 193.1 ± 35.3 s | 69% | 80.1 ± 28.2 s | 5%
